Calls of active or inactive are those of the source.
Key:
Troponin, cardiac muscle = Troponin, cardiac muscle (Homo sapiens, UniProt P19429+P45379+P63316); assay: Fluorescence-based biochemical high throughput dose response assay for activators of the calcium sensitivity of cardiac Regulated Thin Filaments (RTF). [Related pubchem assays (depositor defined):AID493008, AID493018, AID504382, AID504383]; assay type: protein-complex assay
[1] = biological target: T1, Sentrin-specific protease 1 (Homo sapiens, UniProt Q9P0U3); assay: potency of human SENP1 inhibitors, dose response, biochemical, kinetic FRET (AID 651697); assay type: functional; conditions: read-out: IC50_Mean
[2] = biological target: T1, Sentrin-specific protease 1; assay: Dose response confirmation of small molecule inhibitors of the catalytic domain of the SUMO protease, SENP1 in a FRET assay.; assay type: functional; conditions: read-out: IC50_Mean
[3] = MDA-MB-231 cell growth inhibition, dose response, cytotoxicity control for RAD54 inhibitor project, CellTiter-Glo luminescence, cherry-pick (AID 651692); assay type: functional, cell-based
[4] = biological target: T2, DNA repair and recombination protein RAD54-like (Homo sapiens, UniProt Q92698); assay: inhibitors of human RAD54 branch migration, confirmation, biochemical, fluorescence, cherry-picked samples, dose series (AID 651657); assay type: functional
T2 sequence (Q92698 whole entry): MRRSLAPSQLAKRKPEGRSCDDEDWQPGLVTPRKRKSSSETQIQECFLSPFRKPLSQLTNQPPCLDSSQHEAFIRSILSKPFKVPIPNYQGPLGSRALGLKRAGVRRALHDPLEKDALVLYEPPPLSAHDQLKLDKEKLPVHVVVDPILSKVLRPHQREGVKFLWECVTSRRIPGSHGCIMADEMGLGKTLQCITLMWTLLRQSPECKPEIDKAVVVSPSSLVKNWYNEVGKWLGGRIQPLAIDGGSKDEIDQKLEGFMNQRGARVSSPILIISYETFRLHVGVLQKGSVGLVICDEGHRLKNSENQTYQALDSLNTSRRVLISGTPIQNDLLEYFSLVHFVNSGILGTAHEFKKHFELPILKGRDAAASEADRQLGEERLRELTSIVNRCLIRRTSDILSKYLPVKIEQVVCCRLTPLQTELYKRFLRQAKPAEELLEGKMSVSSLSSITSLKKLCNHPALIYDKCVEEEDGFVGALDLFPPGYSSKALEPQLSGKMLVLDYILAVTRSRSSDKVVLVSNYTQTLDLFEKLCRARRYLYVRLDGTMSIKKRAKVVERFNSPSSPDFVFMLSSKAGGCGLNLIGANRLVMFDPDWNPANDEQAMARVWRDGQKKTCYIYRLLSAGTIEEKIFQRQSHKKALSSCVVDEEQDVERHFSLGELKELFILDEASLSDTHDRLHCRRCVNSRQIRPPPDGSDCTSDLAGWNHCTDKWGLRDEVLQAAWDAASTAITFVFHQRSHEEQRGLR

[5] = biological target: T3, DNA repair protein RAD52 homolog (Homo sapiens, UniProt P43351); assay type: functional, biochemical
T3 sequence (P43351 whole entry): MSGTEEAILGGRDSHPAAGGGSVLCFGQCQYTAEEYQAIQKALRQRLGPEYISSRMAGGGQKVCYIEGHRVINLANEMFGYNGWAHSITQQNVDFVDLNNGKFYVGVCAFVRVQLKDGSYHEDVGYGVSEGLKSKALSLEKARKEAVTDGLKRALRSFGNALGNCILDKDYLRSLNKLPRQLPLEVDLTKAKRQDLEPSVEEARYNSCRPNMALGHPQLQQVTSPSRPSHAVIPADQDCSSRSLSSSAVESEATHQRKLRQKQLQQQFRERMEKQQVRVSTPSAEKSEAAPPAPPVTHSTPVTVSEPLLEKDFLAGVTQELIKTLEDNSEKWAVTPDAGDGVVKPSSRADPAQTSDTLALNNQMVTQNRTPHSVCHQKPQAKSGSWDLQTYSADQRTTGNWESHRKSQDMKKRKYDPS

[6] = biological target: T4, Sentrin-specific protease 8 (Homo sapiens, UniProt Q96LD8); assay type: functional
T4 sequence (Q96LD8 whole entry): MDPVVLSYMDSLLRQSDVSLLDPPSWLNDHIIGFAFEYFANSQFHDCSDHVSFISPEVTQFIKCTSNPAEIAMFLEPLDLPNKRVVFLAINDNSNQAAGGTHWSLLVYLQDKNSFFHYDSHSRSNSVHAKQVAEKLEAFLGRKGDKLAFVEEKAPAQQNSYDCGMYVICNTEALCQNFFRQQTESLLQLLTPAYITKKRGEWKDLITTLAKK

[7] = biological target: T4, Sentrin-specific protease 8; assay type: functional; remark: listed apart in the source
Beta-galactosidase = Beta-galactosidase (Escherichia coli, UniProt Q8VNN2); assay: PubChem AID 485352; assay type: functional
[8] = biological target: G-protein coupled receptor 55 (Homo sapiens, UniProt Q9Y2T6); assay: GPR55 antagonists blocking LPI-driven arrestin recruitment, primary screen, imaging, U2OS, beta-arrestin-GFP, LPI agonist (AID 2013); assay type: functional;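 also: antagonist potency measured as reduced agonist-driven arrestin aggregation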
[9] = inhibitors of intracellular T. cruzi replication, confirmation, NIH3T3 host cells, beta-gal luminescence (AID 2044); assay type: functional, cell-based;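 also: intracellular parasites grown in NIH/3T3 mouse fibroblasts as host cells; luminescent beta-galactosidase reporter signal from transgenic T. cruzi replicating inside host cells; inhibitors lower the luminescence signal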
[10] = biological target: T5, Type-1 angiotensin II receptor (Homo sapiens, UniProt P30556); assay: AT1 receptor antagonists, dose response, selectivity assay for APJ receptor antagonist project, cell-based, uHTS hits (AID 463214); assay type: functional;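 also: antagonist potency against angiotensin II stimulated AT1 response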
T5 sequence (P30556 whole entry): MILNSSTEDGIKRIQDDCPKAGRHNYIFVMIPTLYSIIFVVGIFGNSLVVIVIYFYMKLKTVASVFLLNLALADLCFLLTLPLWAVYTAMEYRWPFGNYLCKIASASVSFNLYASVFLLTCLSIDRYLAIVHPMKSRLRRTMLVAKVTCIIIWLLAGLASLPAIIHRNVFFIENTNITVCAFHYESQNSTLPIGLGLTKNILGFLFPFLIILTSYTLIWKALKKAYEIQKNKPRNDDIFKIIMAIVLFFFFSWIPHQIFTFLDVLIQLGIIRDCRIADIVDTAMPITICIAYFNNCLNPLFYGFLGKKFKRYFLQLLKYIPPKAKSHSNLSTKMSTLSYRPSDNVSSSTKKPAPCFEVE

[11] = cytotoxicity toward NIH3T3 fibroblasts, dose response, counter-screen, cell-based, ATP luminescence, mouse fibroblasts (AID 2010); assay type: functional;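 also: cells exposed to compound for about 90 hours before reading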
[12] = biological target: T6, Replicative DNA helicase DnaB (Mycobacterium tuberculosis, UniProt P9WMR3); assay: DnaB intein splicing inhibitors, dose response, biochemical, cell-free fluorescence (AID 449749); assay type: functional
T6 sequence (P9WMR3 whole entry): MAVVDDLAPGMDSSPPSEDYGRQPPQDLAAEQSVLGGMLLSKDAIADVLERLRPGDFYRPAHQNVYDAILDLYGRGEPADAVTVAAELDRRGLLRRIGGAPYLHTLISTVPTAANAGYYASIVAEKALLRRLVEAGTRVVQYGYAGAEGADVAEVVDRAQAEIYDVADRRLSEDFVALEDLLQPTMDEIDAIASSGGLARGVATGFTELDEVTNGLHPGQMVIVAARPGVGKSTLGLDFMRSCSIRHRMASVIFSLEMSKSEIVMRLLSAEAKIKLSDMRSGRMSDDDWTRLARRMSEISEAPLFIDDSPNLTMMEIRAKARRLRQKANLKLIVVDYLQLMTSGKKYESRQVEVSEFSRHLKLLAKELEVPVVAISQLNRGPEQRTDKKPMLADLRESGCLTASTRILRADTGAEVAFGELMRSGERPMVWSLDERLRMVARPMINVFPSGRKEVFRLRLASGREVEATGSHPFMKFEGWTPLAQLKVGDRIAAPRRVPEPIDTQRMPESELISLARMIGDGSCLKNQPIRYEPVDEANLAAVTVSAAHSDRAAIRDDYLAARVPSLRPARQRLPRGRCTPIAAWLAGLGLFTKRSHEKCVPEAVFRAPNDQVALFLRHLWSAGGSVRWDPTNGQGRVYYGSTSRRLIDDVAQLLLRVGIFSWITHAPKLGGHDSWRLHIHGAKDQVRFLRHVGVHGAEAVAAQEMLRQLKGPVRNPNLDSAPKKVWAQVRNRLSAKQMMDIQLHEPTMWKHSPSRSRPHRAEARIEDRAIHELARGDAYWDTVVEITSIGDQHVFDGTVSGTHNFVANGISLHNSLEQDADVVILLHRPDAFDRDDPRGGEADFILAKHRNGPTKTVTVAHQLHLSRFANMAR

Protein RecA = biological target: T7, Protein RecA (Mycobacterium tuberculosis, UniProt P9WHJ3); assay: Fluorescence Cell-Free Homogeneous Dose Retest to Identify Inhibitors of RecA-Intein Splicing Activity. [Related pubchem assays (depositor defined):AID2097, AID2223, AID489010, AID492950]; assay type: functional
T7 sequence (P9WHJ3 whole entry): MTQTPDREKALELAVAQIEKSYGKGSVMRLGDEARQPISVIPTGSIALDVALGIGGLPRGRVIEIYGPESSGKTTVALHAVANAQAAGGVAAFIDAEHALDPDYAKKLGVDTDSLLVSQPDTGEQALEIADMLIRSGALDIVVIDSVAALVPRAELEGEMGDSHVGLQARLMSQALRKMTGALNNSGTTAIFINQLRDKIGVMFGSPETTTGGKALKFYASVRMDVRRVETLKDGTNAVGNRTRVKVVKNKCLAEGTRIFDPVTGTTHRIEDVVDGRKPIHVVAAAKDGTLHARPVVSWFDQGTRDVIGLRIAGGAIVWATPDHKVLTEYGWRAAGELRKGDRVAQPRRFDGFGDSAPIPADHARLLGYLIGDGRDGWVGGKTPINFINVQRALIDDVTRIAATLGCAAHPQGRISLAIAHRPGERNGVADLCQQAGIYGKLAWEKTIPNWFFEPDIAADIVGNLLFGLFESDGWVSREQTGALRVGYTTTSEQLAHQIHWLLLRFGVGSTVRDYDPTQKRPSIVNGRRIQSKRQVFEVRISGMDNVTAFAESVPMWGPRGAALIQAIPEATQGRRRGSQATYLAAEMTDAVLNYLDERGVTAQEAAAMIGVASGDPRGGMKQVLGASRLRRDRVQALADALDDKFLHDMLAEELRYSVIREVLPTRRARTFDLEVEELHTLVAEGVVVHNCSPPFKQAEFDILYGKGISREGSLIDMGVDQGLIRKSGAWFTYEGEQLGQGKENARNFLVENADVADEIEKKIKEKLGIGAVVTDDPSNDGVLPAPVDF

[13] = Fluorescence-based cell-based high throughput dose response assay for inhibitors of the interaction of nucleotide-binding oligomerization domain containing 2 (NOD2) and the receptor-interacting serine-threonine kinase 2 (RIPK2).; assay type: functional; conditions: Homo sapiens
Beta Lactamase = Beta Lactamase (Pseudomonas aeruginosa, UniProt Q932Y6); assay: beta-lactamase reporter inhibitor potency, dose response, artefact control for NOD2-RIPK2 interaction inhibitor project, BLA reporter cells, FRET fluorescence (AID 651552); assay type: functional, cell-based
[14] = miR-122 activators in hepatoma reporter cells, dose response, cell-based, Huh7 psiCHECK-miR122, Renilla luciferase, cherry-picked (AID 651956); assay type: functional;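 also: huh7 hepatoma cells stably carrying a psiCHECK-2 miR-122 sensor plasmid; renilla luciferase signal reporting endogenous miR-122 activity after 48 h compound exposure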
[15] = A549 cell cytotoxicity, dose response, cytotoxicity control, plate reader, cherry-pick, antagonist series (AID 743412); assay type: functional, cell-based
[16] = HepG2 cell cytotoxicity, dose response, cytotoxicity control, plate reader, cherry-pick, antagonist series (AID 743416); assay type: functional, cell-based
[17] = LGR2 antagonists, dose response, cell-based, HEK293, CRE-luciferase reporter, cherry pick, set 2 (AID 743343); assay type: functional;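 also: transfected cells were stimulated with diluted bursicon conditioned medium after compound addition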
[18] = HEK293T cytotoxicity, dose response, cytotoxicity control for miR-122 modulator project, cell-based, inhibitor set, cherry-pick, set 2 (AID 720697); assay type: functional
[19] = HEK293T cytotoxicity, dose response, cytotoxicity control for miR-122 modulator project, cell-based, activator set, cherry-pick (AID 720690); assay type: functional;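 also: HEK293T human cells scored for general mammalian cytotoxicity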
[20] = MC4R antagonists, dose response, counter-screen for LGR2 antagonist project, cell-based, plate reader, cherry pick (AID 743444); assay type: functional;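 also: transfected HEK 293 cells stimulated with alpha-MSH peptide; potency of inhibitors of the alpha-MSH evoked signal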
[21] = HEK293 cell cytotoxicity, dose response, cytotoxicity control, plate reader, cherry-picked samples (AID 743446); assay type: functional, cell-based

CC(=O)Oc1ccc(N2C(=O)C3C(C2=O)C(C(=O)c2ccc(Cl)cc2)N2CCCC32)cc1 (stereo not given)
inactive: EC50 (Troponin, cardiac muscle) 23.5 µM
active: IC50 [1] 7.5 µM | IC50 [2] 4.65 µM

CN(C)CCCNc1cc(-c2ccccc2)nc2cc(-c3cccc(F)c3)nn12
active: AC50 [3] 24.4 µM | AC50 [4] 21.1 µM | AC50 [5] 15.1 µM

Cn1cnc2c(O)ncc([N+](=O)[O-])c21
inactive: IC50 [6] > 100 µM
active: IC50 [7] 10.4 µM

CNC(=O)c1nnsc1S(=O)(=O)c1ccc(Cl)cc1
active: EC50 [9] 1.24 µM | IC50 [10] 9.67 µM | EC50 [11] 2.47 µM | AC50 [12] 15.3 µM | EC50 (Protein RecA) 14.3 µM | IC50 [13] 2.13 µM | AC50 [14] 18.8 µM | AC50 [15] 8.58 µM | AC50 [16] 7.37 µM | AC50 [17] 3.74 µM | AC50 [18] 4.54 µM | AC50 [19] 2.7 µM | AC50 [20] 3.28 µM | AC50 [21] 7.5 µM
inactive: EC50 (Beta-galactosidase) > 40 µM | IC50 [8] 10.6 µM | IC50 (Beta Lactamase) 11.3 µM

— ChEMBL document CHEMBL1201862, “PubChem BioAssay data set” (2004)
